Experimental data taken from patent US5807754A, “Combinatorial synthesis and high-throughput screening of a Rev-inhibiting arylidenediamide array” (Arqule, Inc., priority 1995, dated 1998).

Molecular target: Rev-RRE complexes (recombinant Rev protein, synthetic 32P-labelled RRE RNA) (Human immunodeficiency virus type 1 group M subtype B, UniProt P04618)
Assay: Rev-RRE binding inhibition, nitrocellulose filter binding assay with scintillation counting
Parameters: species or system Human Immunodeficiency Virus (HIV)
Conditions: array assayed at 6 ug/mL, non-specific competitor RNA
Protocol: The array was assayed in parallel at 6 ug/mL in reaction mixtures containing recombinant Rev protein, synthetic 32P-labelled RRE RNA, and a non-specific competitor RNA. The reaction is then filtered through nitrocellulose filters and washed with a low salt binding buffer. Rev-RRE complexes are retained in the filter while the unbound RRE filters through. Rev-RRE complexes retained in the filter are then quantified by scintillation counting. The percentage of inhibition is calculated according to the formula: […]
where CPM1 is the activity obtained in the presence of the drug and CPM0 is the average activity in the absence of the drug. […] Raising the criterion of interest to 90% inhibition of complex formation afforded a set of 55 compounds which were examined for common functionality. These 55 compounds and their inhibition values are listed in the following table, where A, B, and C are the structural diversity elements of the scaffold: […]

Chain of Rev-RRE complexes (recombinant Rev protein, synthetic 32P-labelled RRE RNA) (P04618 whole entry, looked up, one chain of several): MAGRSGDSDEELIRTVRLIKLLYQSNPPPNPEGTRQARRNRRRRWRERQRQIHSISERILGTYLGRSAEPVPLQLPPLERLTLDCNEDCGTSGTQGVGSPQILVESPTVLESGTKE

SMILES | % inh
O=C(NC(c1ccccc1)c1ccccc1)/C(=C/c1cccc(C(F)(F)F)c1)NC(=O)c1ccc2ccccc2c1 | 93%

Same assay, conditions: array assayed at 6 ug/mL, non-specific competitor RNA, listed as 2-napbthyl / α,α,α-trifluoro-m-toluyl / 1,2,3,4-tetrahydronaphth-1-yl

SMILES | % inh
O=C(NC1CCCc2ccccc21)/C(=C/c1cccc(C(F)(F)F)c1)NC(=O)c1ccc2ccccc2c1 (stereo not shown) | 90%

Same assay, conditions: array assayed at 6 ug/mL, non-specific competitor RNA, read-out: % inh

SMILES | inhibition at 6 µg/mL
O=C(NC1CCCc2ccccc21)/C(=C/c1cccc(C(F)(F)F)c1)NC(=O)c1ccc2ccccc2c1 (stereo not shown) | 97%
Cc1ccc(CCNC(=O)/C(=C/c2ccc(-c3ccccc3)cc2)NC(=O)c2ccc(Cl)cc2Cl)cc1 | 94%
O=C(NC1CCCc2ccccc21)/C(=C/c1ccc(OC(F)(F)F)cc1)NC(=O)c1ccc2ccccc2c1 (stereo not shown) | 94%
O=C(NCC(c1ccccc1)c1ccccc1)/C(=C/c1ccc(C(F)(F)F)cc1)NC(=O)c1ccc2ccccc2c1 | 95%
Cc1ccc(CCNC(=O)/C(=C/c2cccc(Oc3ccccc3)c2)NC(=O)c2ccc(Cl)cc2Cl)cc1 | 95%
O=C(NC1CCCc2ccccc21)/C(=C/c1ccc(C(F)(F)F)cc1)NC(=O)c1ccc(C(F)(F)F)cc1 (stereo not shown) | 94%
O=C(NC(c1ccccc1)c1ccccc1)/C(=C/c1cccc(C(F)(F)F)c1)NC(=O)c1ccc(Cl)cc1Cl | 96%
O=C(NC1CCCCC1)/C(=C/c1ccccc1)NC(=O)c1ccc(Cl)cc1Cl [2,4-dichlorophenyl / phenyl / cyclohexyl] | 98%
O=C(NC1CCCc2ccccc21)/C(=C/c1ccc(-c2ccccc2)cc1)NC(=O)c1ccc(Cl)cc1Cl (stereo not shown) | 92%
Cc1ccc(CCNC(=O)/C(=C/c2cccc(C(F)(F)F)c2)NC(=O)c2ccc3ccccc3c2)cc1 | 96%
O=C(NCC(O)c1ccccc1)/C(=C/c1ccc(Cl)cc1Cl)NC(=O)c1ccc2ccccc2c1 (stereo not shown) | 95%
O=C(NCc1ccco1)/C(=C/c1cccc(C(F)(F)F)c1)NC(=O)c1ccc2ccccc2c1 | 93%
O=C(NC1CCc2ccccc21)/C(=C/c1ccc(-c2ccccc2)cc1)NC(=O)c1ccc(Cl)cc1Cl (stereo not shown) | 90%
O=C(NC1CCCc2ccccc21)/C(=C/c1ccc(Cl)cc1)NC(=O)c1ccc(C(F)(F)F)cc1 (stereo not shown) | 92%
O=C(Nc1cccnc1)/C(=C/c1ccc(Cl)cc1Cl)NC(=O)c1ccc2ccccc2c1 | 91%
O=C(NC1CCCc2ccccc21)/C(=C/c1ccc(C(F)(F)F)cc1)NC(=O)c1ccc2ccccc2c1 (stereo not shown) | 95%
O=C(NC1CCCc2ccccc21)/C(=C/c1cccc(Oc2ccccc2)c1)NC(=O)c1ccc(C(F)(F)F)cc1 (stereo not shown) | 90%
O=C(NCc1ccccc1)/C(=C/c1ccc(-c2ccccc2)cc1)NC(=O)c1ccc(Cl)cc1Cl | 94%
O=C(NCC(c1ccccc1)c1ccccc1)/C(=C/c1cccc(C(F)(F)F)c1)NC(=O)c1ccc(Cl)cc1Cl | 93%
O=C(NC(c1ccccc1)c1ccccc1)/C(=C/c1cccc(Cl)c1)NC(=O)c1ccc2ccccc2c1 | 92%
O=C(N/C(=C\c1ccc(C(F)(F)F)cc1)C(=O)N1CCN(c2cccc(C(F)(F)F)c2)CC1)c1ccc(Cl)cc1Cl | 90%
O=C(NC(c1ccccc1)c1ccccc1)/C(=C/c1cccc(C(F)(F)F)c1)NC(=O)c1ccc2ccccc2c1 | 96%
O=C(NCC(c1ccccc1)c1ccccc1)/C(=C/c1cccc(C(F)(F)F)c1)NC(=O)c1ccc2ccccc2c1 | 93%
O=C(N/C(=C\c1ccc(C(F)(F)F)cc1)C(=O)N1CCC(Cc2ccccc2)CC1)c1ccc2ccccc2c1 | 91%
O=C(NCc1cccc2ccccc12)/C(=C/c1ccc(-c2ccccc2)cc1)NC(=O)c1ccc(Cl)cc1Cl | 90%

SMILES | inhibition at 6 µg/mL
Cc1ccc(CCNC(=O)/C(=C/c2ccc(C(F)(F)F)cc2)NC(=O)c2ccc(C(F)(F)F)cc2)cc1 | 95%
O=C(NCCc1ccccc1)/C(=C/c1ccc(-c2ccccc2)cc1)NC(=O)c1ccc(Cl)cc1Cl | 91%
Cc1ccc(C(=O)N/C(=C\c2ccc(F)cc2F)C(=O)NCC(O)c2ccccc2)cc1 (stereo not shown) | 96%
O=C(NC(c1ccccc1)c1ccccc1)/C(=C/c1cccc(Oc2ccccc2)c1)NC(=O)c1ccc(C(F)(F)F)cc1 | 94%
O=C(NC1CCc2ccccc21)/C(=C/c1cccc(C(F)(F)F)c1)NC(=O)c1ccc2ccccc2c1 (stereo not shown) | 92%
COc1cccc(/C=C(\NC(=O)c2ccc3ccccc3c2)C(=O)NCCc2ccccc2)c1 [2-naphthyl / m-anisyl / phenethyl] | 91%
O=C(NCCCc1ccccc1)/C(=C/c1ccc(C(F)(F)F)cc1)NC(=O)c1ccc2ccccc2c1 | 91%
O=C(NC(c1ccccc1)c1ccccc1)/C(=C/c1ccc(OC(F)(F)F)cc1)NC(=O)c1ccc2ccccc2c1 | 96%
O=C(N/C(=C\c1cccc(C(F)(F)F)c1)C(=O)N1CCC(Cc2ccccc2)CC1)c1ccc2ccccc2c1 | 95%
O=C(N/C(=C\c1cccc(Oc2ccccc2)c1)C(=O)N1CCN(c2ccccc2)CC1)c1ccc(C(F)(F)F)cc1 | 90%
CCC(CC)NC(=O)/C(=C/c1cccc(C(F)(F)F)c1)NC(=O)c1ccc2ccccc2c1 | 93%
O=C(NCC(c1ccccc1)c1ccccc1)/C(=C/c1cc(F)cc(F)c1)NC(=O)c1ccc(Cl)cc1Cl | 94%
O=C(NCc1cccc2ccccc12)/C(=C/c1cccc(C(F)(F)F)c1)NC(=O)c1ccc2ccccc2c1 | 94%
O=C(NC1CCc2ccccc21)/C(=C/c1ccc(C(F)(F)F)cc1)NC(=O)c1ccc2ccccc2c1 (stereo not shown) | 92%
O=C(NC1CCCc2ccccc21)/C(=C/c1cccc(C(F)(F)F)c1)NC(=O)c1ccc(Cl)cc1Cl (stereo not shown) | 90%
O=C(N/C(=C\c1ccc(C(F)(F)F)cc1)C(=O)N1CCN(c2ccccc2)CC1)c1ccc(C(F)(F)F)cc1 | 91%
COc1cccc(/C=C(\NC(=O)c2ccc3ccccc3c2)C(=O)NC(c2ccccc2)c2ccccc2)c1 [2-naphthyl / m-anisyl / diphenylmethyl] | 94%
O=C(Nc1cccnc1)/C(=C/c1ccccc1F)NC(=O)c1ccccc1 [phenyl / 2-fluorophenyl / 3-pyridinyl] | 91%
O=C(NCc1cccc2ccccc12)/C(=C/c1cnc2ccccc2c1)NC(=O)c1ccc2ccccc2c1 | 96%
O=C(NCc1cccc2ccccc12)/C(=C/c1ccc(F)cc1F)NC(=O)c1ccc2ccccc2c1 | 93%
Cc1ccc(C(=O)N/C(=C\c2ccccc2Cl)C(=O)NCCCN2CCOCC2)cc1 | 95%
CC(C)CC(CO)NC(=O)/C(=C/c1cccc(C(F)(F)F)c1)NC(=O)c1ccc2ccccc2c1 (stereo not shown) | 94%
O=C(NCC(c1ccccc1)c1ccccc1)/C(=C/c1ccc(F)cc1)NC(=O)c1ccc2ccccc2c1 | 90%
Cc1ccc(C(=O)N/C(=C\c2ccccc2Cl)C(=O)NCc2cccc3ccccc23)cc1 | 90%
O=C(NC(c1ccccc1)c1ccccc1)/C(=C/c1ccc(-c2ccccc2)cc1)NC(=O)c1ccc(Cl)cc1Cl | 96%

Same assay, conditions: read-out: % inh, array assayed at 6 ug/mL, non-specific competitor RNA

SMILES | inhibition at 6 µg/mL
CC(CCc1ccccc1)NC(=O)/C(=C/c1ccc(C(F)(F)F)cc1)NC(=O)c1ccc2ccccc2c1 (stereo not shown) | 96%
O=C(Nc1cccnc1)/C(=C/c1cc(F)cc(F)c1)NC(=O)c1ccc(Cl)cc1Cl | 91%
O=C(NC(c1ccccc1)c1ccccc1)/C(=C/c1ccc(C(F)(F)F)cc1)NC(=O)c1ccc2ccccc2c1 | 96%
